In patent publication US8415469B2, “Compounds and methods for kinase modulation, and indications therefor” (Plexxikon Inc., priority 2005, dated 2013):

Tests used:
Format in all cases: biochemical
Abl = biological target: T1, Abl (Homo sapiens, UniProt P00519); experiment: AlphaScreen kinase assay, Abl; conditions: read-out: activity toward kinase Abl, IC50
T1 construct: P1121. pET-SPEC BI-PTP Abl G227-V515-X; His6 (N); made in house; host or cells: E. coli (PTP1B co-expressed)
T1 sequence (P00519 with tags, fused parts or gaps): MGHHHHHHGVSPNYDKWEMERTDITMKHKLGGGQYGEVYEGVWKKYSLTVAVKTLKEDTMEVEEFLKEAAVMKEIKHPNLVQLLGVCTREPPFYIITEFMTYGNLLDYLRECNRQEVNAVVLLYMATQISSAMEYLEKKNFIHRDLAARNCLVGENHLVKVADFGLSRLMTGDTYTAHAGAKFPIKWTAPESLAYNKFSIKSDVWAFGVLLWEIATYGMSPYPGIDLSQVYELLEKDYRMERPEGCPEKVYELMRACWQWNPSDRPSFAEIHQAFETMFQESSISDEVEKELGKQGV
How it was run: (§1)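 Here, phosphorylation of a biotin-tagged peptide was sensed by proximity of streptavidin donor and antibody-bearing acceptor beads. Test compounds covered 8 concentrations by 1:3 serial dilution of 20 mM DMSO stocks.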

Fak = biological target: T2, Fak (Homo sapiens, UniProt Q05397); experiment: AlphaScreen kinase assay, Fak; conditions: read-out: IC50, activity toward kinase Fak
T2 construct: P1358.pFastBacHtb FAK S411-Q686-X; His6 with pFastBacHTb leader (TEV site) (N); made in house; host or cells: Sf9 (baculovirus)

Flt1 = biological target: T3, Flt1 (Homo sapiens, UniProt P17948); experiment: AlphaScreen kinase assay, Flt1; conditions: read-out: IC50, activity toward kinase Flt1
T3 construct: P1826.pETN6 BI-PTP FLT1 M799-D1165-X WT; His6 (N); made in house; host or cells: E. coli (PTP1B co-expressed)
T3 sequence (P17948 with tags, fused parts or gaps): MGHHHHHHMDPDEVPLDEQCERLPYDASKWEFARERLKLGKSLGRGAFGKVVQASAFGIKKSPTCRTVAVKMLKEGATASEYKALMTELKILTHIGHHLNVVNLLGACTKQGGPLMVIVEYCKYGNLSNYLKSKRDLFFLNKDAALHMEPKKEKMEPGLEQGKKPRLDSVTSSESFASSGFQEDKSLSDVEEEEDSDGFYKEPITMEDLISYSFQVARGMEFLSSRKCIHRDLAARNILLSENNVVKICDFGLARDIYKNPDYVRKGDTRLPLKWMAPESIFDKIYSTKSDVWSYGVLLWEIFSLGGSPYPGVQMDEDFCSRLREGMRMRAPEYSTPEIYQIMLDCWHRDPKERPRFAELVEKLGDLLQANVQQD

Jnk1 = biological target: T4, Jnk1 (Homo sapiens, UniProt P45983); experiment: AlphaScreen kinase assay, Jnk1; conditions: read-out: IC50, activity toward kinase Jnk1
T4 construct: purchased Upstate Biotechnology

Src = biological target: T5, Src (Homo sapiens, UniProt P12931); experiment: AlphaScreen kinase assay, Src; conditions: read-out: IC50, activity toward kinase Src
T5 construct: P1144. pET-N6 BI-PTP SRC V86-L536-X; made in house

Jak3 = biological target: T6, Jak3 (Homo sapiens, UniProt P52333); experiment: AlphaScreen kinase assay, Jak3; conditions: read-out: IC50, activity toward kinase Jak3
T6 sequence (P52333 1-1124): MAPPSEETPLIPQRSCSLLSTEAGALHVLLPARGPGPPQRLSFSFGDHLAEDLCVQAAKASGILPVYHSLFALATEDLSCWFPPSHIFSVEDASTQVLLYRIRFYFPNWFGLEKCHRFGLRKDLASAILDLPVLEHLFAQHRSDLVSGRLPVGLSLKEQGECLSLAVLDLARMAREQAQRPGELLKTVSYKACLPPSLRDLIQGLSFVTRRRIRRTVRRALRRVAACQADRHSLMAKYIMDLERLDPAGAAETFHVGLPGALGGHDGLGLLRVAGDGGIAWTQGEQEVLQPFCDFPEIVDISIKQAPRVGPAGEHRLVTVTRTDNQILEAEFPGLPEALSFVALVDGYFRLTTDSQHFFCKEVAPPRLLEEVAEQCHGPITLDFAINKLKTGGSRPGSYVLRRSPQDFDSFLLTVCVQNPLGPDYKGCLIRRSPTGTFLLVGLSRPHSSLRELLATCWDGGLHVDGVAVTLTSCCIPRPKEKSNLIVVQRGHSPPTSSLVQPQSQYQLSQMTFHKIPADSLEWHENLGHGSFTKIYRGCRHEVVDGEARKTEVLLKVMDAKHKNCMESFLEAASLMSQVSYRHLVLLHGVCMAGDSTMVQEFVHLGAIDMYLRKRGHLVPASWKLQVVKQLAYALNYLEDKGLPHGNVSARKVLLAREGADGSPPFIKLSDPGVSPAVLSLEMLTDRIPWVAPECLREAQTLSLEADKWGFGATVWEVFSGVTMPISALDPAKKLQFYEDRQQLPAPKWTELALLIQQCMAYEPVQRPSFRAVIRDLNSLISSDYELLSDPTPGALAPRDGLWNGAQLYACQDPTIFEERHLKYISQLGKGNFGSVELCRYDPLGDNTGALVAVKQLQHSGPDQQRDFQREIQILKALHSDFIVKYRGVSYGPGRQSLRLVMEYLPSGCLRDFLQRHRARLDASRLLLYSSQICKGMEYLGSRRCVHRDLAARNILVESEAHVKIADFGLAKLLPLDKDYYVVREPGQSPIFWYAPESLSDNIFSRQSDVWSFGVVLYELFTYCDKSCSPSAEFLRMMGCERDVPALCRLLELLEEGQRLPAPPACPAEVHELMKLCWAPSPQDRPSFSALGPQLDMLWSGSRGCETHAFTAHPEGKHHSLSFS
How it was run: as §1

c-Raf-1 = biological target: T7, c-Raf-1 (Homo sapiens, UniProt P04049); experiment: AlphaScreen kinase assay, c-Raf-1; conditions: read-out: IC50, activity toward kinase c-Raf-1
T7 construct: purchased Upstate Biotechnology

Measured: IC50

T5 sequence (P12931 with tags, fused parts or gaps): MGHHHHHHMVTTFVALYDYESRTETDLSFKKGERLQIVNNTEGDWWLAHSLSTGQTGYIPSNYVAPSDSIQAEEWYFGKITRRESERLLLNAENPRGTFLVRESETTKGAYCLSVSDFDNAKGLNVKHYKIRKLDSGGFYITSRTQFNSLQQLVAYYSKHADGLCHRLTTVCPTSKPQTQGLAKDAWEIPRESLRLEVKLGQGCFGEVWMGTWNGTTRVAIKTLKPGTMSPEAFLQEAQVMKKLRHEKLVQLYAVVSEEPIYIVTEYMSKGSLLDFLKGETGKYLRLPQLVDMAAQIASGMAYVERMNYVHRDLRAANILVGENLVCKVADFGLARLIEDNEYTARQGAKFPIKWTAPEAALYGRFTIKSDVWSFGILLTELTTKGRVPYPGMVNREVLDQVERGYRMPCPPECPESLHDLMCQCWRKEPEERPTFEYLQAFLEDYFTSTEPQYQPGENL
T4 sequence (P45983 whole entry): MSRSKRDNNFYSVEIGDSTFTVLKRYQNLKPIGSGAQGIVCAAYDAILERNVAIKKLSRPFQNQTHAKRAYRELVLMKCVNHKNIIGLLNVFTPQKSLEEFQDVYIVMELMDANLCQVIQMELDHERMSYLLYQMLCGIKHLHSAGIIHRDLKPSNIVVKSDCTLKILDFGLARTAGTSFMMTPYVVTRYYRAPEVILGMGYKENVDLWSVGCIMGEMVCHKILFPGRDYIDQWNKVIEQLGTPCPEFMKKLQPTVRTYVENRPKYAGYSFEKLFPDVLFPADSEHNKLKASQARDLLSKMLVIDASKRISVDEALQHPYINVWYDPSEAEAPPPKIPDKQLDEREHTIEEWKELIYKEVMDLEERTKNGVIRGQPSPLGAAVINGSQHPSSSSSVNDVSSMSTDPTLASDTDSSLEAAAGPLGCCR
T2 sequence (Q05397 411-686): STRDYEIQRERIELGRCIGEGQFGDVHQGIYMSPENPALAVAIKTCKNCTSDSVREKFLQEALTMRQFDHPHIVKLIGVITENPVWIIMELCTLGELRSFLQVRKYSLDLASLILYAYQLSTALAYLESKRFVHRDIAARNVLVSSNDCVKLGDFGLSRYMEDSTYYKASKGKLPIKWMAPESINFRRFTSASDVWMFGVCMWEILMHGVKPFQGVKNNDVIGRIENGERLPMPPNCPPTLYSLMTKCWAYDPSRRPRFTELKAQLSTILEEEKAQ
T7 sequence (P04049 whole entry): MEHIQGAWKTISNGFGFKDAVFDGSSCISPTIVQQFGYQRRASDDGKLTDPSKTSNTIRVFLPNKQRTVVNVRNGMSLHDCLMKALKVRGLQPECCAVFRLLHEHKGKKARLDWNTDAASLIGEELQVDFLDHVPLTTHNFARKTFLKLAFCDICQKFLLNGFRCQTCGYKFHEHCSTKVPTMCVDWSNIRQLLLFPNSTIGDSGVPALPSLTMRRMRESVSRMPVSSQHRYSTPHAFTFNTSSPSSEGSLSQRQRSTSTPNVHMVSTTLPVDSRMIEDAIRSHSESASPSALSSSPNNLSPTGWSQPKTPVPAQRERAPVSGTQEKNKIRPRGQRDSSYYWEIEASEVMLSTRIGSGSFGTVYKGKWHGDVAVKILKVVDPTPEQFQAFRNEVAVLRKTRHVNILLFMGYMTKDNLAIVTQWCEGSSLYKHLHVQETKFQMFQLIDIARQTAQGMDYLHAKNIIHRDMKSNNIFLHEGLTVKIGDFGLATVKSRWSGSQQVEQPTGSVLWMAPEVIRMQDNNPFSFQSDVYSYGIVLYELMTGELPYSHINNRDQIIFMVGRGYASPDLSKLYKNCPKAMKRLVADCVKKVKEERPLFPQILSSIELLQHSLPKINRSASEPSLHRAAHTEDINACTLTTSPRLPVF

Nc1cccc(-c2cnc3[nH]cc(C(=O)c4cccc(O)c4)c3c2)c1 [Compound P-0003]
not listed: c-Raf-1
≤ 10 µM: all other assays above

O=C(c1cccc(O)c1)c1c[nH]c2ncc(Br)cc12 [Compound P-0019]
≤ 10 µM: Abl | Flt1 | Jak3

NC(=O)c1cccc(-c2cnc3[nH]cc(C(=O)c4cccc(O)c4F)c3c2)c1 [Compound P-0034, 3-[3-(2-Fluoro-3-hydroxy-benzoyl)-1H-pyrrolo[2,3-b]pyridin-5-yl]benzamide]
not listed: Abl
≤ 10 µM: all other assays above

O=C(c1cccc(O)c1F)c1c[nH]c2ncc(-c3cccs3)cc12 [Compound P-0521, (2-fluoro-3-hydroxy-phenyl)-(5-thiophen-2-yl-1H-pyrrolo[2,3-b]pyridin-3-yl)-methanone]
not listed: Fak
≤ 10 µM: all other assays above
